Test results as given in patent US7598245B2 (Vertex Pharmaceuticals Incorporated, priority 2003, dated 2009).

Tests used:
Type in all cases: biochemical
[1] = target: GSK-3β (AA 1-420) (Homo sapiens, UniProt P49841); test: Inhibition of GSK-3, coupled enzyme system; conditions: 20 μM ATP, 30° C.
Description: Compounds are screened for their ability to inhibit GSK-3β (AA 1-420) activity using a standard coupled enzyme system [Fox et al. Protein Sci. 1998, 7, 2249]. Reactions are carried out in a solution containing 100 mM HEPES (pH 7.5), 10 mM MgCl2, 25 mM NaCl, 300 μM NADH, 1 mM DTT and 1.5% DMSO. Final substrate concentrations in the assay are 20 μM ATP (Sigma Chemicals, St Louis, Mo.) and 300 μM peptide (American Peptide, Sunnyvale, Calif.). Reactions are carried out at 30° C. and 20 nM GSK-3β. Final concentrations of the components of the coupled enzyme system are 2.5 mM phosphoenolpyruvate, 300 μM NADH, 30 μg/ml pyruvate kinase and 10 μg/ml lactate dehydrogenase.
An assay stock buffer solution is prepared containing all of the reagents listed above with the exception of ATP and the test compound of interest. The assay stock buffer solution (175 μl) is incubated in a 96 well plate with 5 μl of the test compound of interest at final concentrations spanning 0.002 μM to 30 μM at 30° C. for 10 min. Typically, a 12 point titration is conducted by preparing serial dilutions (from 10 mM compound stocks) with DMSO of the test compounds in daughter plates. The reaction is initiated by the addition of 20 μl of ATP (final concentration 20 μM). Rates of reaction are obtained using a Molecular Devices Spectramax plate reader (Sunnyvale, Calif.) over 10 min at 30° C. The Ki values are determined from the rate data as a function of inhibitor concentration.

[2] = target: T1, Aurora-2 (Homo sapiens, UniProt O14965); test: Inhibition of AUR-2, coupled enzyme assay
T1 construct: addition of 10 μL of Aurora-2 stock solution to give a final concentration of 70 nM
T1 sequence (O14965 1-403): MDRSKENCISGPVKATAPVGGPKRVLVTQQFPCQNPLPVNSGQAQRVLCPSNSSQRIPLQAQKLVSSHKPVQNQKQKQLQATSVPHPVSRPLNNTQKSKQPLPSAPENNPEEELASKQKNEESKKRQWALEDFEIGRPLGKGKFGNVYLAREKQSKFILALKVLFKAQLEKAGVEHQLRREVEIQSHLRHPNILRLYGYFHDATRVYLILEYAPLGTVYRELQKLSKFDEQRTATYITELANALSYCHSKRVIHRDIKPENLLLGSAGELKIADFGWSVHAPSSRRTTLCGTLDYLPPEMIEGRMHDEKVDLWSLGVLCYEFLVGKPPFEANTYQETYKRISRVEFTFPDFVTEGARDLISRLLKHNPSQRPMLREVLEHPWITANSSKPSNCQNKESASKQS
Description: Compounds are screened in the following manner for their ability to inhibit Aurora-2 using a standard coupled enzyme assay (Fox et al (1998) Protein Sci 7, 2249). To an assay stock buffer solution containing 0.1M HEPES 7.5, 10 mM MgCl2, 1 mM DTT, 25 mM NaCl, 2.5 mM phosphoenolpyruvate, […], 30 mg/ml pyruvate kinase, 10 mg/ml lactate dehydrogenase, 40 mM ATP, and 800 μM peptide (LRRASLG, American Peptide, Sunnyvale, Calif.) is added a DMSO solution of a compound of the present invention to a final concentration of 30 μM. The resulting mixture is incubated at 30° C. for 10 min. The reaction was initiated by the addition of 10 μL of Aurora-2 stock solution to give a final concentration of 70 nM in the assay. The rates of reaction are obtained by monitoring absorbance at 340 nm over a 5 minute read time at 30° C. using a BioRad Ultramark plate reader (Hercules, Calif.). The Ki values are determined from the rate data as a function of inhibitor concentration.

[3] = target: T2, c-KIT (Homo sapiens, UniProt P10721); test: Inhibition of c-KIT, radiometric filter-binding assay; conditions: 700 μM ATP, pE4Y substrate
T2 construct: 0.02% BSA and 25 nM c-KIT
Description: Compounds are screened for their ability to inhibit c-KIT activity using a radiometric filter-binding assay. This assay monitors the ^33P incorporation into a substrate poly(Glu, Tyr) 4:1 (pE4Y). Reactions are carried out in a solution containing 100 mM HEPES (pH 7.5), 10 mM MgCl2, 25 mM NaCl, 1 mM DTT, 0.01% BSA and 2.5% DMSO. Final substrate concentrations in the assay were 700 μM ATP and 0.5 mg/mL pE4Y (both from Sigma Chemicals, St Louis, Mo.). The final concentration of compounds is generally between 0.01 and 5 μM. Typically, a 12-point titration is conducted by preparing serial dilutions from 10 mM DMSO stock of test compound. Reactions were carried out at room temperature.
Two assay solutions are prepared. Solution 1 contains 100 mM HEPES (pH 7.5), 10 mM MgCl2, 25 mM NaCl, 1 mg/ml pE4Y and 1.4 mM ATP (containing 0.5 μCi of [γ-^33P]ATP for each reaction). Solution 2 contains 100 mM HEPES (pH 7.5), 10 mM MgCl2, 25 mM NaCl, 2 mM DTT, 0.02% BSA and 25 nM c-KIT. The assay is run on a 96 well plate by mixing 33 μL of Solution1 and 1.65 μL of the test compounds. The reaction is initiated with 33 μL of Solution2. After incubation for 20 minutes at room temperature, the reaction was stopped with 50 μL of 10% TCA containing 0.2 mM of ATP. All of the reaction volume is then transferred to a filter plate and washed with 5% TCA by a Harvester9600 from TOMTEC (Hamden, Conn.). The amount of ^33P incorporation into pE4y is analyzed by a Packard TopCount Microplate Scintillation Counter (Meriden, Conn.). The data is fitted using Prism software to get an IC50 or Ki.

T2 sequence (P10721 26-976): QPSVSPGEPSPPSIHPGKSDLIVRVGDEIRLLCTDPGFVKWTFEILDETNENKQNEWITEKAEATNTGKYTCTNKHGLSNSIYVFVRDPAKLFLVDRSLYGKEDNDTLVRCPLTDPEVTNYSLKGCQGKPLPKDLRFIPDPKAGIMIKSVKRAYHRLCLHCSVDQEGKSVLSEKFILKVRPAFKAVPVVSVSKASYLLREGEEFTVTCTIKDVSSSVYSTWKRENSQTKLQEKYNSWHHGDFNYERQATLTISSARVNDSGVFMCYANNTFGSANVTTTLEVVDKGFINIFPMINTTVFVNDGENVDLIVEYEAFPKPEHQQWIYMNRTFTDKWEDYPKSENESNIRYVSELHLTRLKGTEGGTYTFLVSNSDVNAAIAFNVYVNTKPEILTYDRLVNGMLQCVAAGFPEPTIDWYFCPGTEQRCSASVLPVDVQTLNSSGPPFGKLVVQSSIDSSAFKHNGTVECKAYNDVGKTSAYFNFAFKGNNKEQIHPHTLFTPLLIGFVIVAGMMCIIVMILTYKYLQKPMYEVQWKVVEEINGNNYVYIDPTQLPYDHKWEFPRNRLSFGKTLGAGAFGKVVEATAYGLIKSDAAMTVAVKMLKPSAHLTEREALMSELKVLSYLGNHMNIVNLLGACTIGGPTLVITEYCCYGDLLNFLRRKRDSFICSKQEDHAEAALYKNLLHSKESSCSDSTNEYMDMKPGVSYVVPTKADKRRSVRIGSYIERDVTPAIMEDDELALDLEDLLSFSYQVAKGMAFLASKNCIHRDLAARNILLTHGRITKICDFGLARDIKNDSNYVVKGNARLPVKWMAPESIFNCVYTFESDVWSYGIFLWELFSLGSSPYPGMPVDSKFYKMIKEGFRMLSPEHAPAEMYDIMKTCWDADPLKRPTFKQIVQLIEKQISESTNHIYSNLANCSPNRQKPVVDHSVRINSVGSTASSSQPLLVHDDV
GSK-3β (AA 1-420), sequence (P49841 whole entry, the tested form may be a part): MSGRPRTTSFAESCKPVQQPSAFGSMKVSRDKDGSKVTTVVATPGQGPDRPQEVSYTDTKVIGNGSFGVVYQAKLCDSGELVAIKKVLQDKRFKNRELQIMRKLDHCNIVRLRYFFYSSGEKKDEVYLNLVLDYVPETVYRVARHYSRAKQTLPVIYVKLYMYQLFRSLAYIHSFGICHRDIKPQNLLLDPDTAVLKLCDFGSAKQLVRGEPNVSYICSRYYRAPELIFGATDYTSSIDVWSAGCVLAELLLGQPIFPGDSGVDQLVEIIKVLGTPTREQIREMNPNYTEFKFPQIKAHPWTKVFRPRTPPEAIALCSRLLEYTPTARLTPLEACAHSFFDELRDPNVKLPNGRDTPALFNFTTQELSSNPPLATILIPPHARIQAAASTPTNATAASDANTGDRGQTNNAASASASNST

For `COCC(=O)N1CCCN(c2cc(-n3cnc(Nc4ccccc4)n3)ccn2)CC1` [Compound I-71], the Ki [1] was over 1000 nM and the Ki [2] was 100 to 1000 nM.

`CCOc1cccc(Nc2ncn(-c3ccccc3)n2)c1` [Compound I-45] showed a Ki [3] of under 50 nM, a Ki [1] of over 1000 nM and a Ki [2] of over 1000 nM.

In the case of `CC(=O)N1[C@H](C)CN(c2cc(-n3cnc(Nc4ccc(N)cc4)n3)ccn2)C[C@@H]1C` [Compound I-82], the Ki [3] is reported as 50 to 500 nM, the Ki [1] is reported as over 1000 nM and the Ki [2] is reported as under 100 nM.

With `CC(=O)N1[C@H](C)CN(c2cc(-n3cnc(Nc4ccccc4)n3)ccn2)C[C@@H]1C` [Compound I-74] the Ki [3] was 50 to 500 nM, the Ki [1] was over 1000 nM and the Ki [2] was under 100 nM.

For `CC(=O)N1[C@H](C)CN(c2cc(-n3cnc(Nc4ccc(N5CCOCC5)cc4)n3)ccn2)C[C@@H]1C` [Compound I-85, 1-(2,6-Dimethyl-4-{4-[3-(4-morpholin-4-yl-phenylamino)-[1,2,4]triazol-1-yl]-pyridin-2-yl}-piperazin-1-yl)-ethanone], the Ki [3] was 50 to 500 nM, the Ki [1] was over 1000 nM and the Ki [2] was under 100 nM.

`CCOC(=O)c1ccc(Nc2ncn(-c3ccnc(N4C[C@@H](C)N(C(C)=O)[C@@H](C)C4)c3)n2)cc1` [Compound I-75] gave a Ki [3] of under 50 nM, a Ki [1] of over 1000 nM and a Ki [2] of under 100 nM.

`c1ccc(Nc2ncn(-c3ccnc(N4CCCCCC4)c3)n2)cc1` [Compound I-73] gave a Ki [3] of 50 to 500 nM, a Ki [1] of 500 to 1000 nM and a Ki [2] of under 100 nM.

`COc1cc(Nc2ncn(-c3ccc(C#N)cc3)n2)cc(OC)c1OC` [Compound I-43] showed a Ki [1] of 500 to 1000 nM and a Ki [2] of 100 to 1000 nM.

Work on `c1ccc(-n2cnc(Nc3ccnc(N4CCOCC4)c3)n2)cc1` [Compound I-105] yielded a Ki [3] of under 50 nM, a Ki [1] of over 1000 nM and a Ki [2] of 100 to 1000 nM.

In the case of `N#CCC(=O)N1CCCN(c2cc(-n3cnc(Nc4ccccc4)n3)ccn2)CC1` [Compound I-72], the Ki [3] is reported as 50 to 500 nM, the Ki [1] is reported as over 1000 nM and the Ki [2] is reported as 100 to 1000 nM.

Molecule `CC(=O)N1[C@H](C)CN(c2cc(-n3cnc(Nc4ccc(NC(=O)OC(C)C)cc4)n3)ccn2)C[C@@H]1C` [Compound I-89] has a Ki [3] of 50 to 500 nM, a Ki [1] of over 1000 nM and a Ki [2] of under 100 nM.

In the case of `CC(C)Oc1cccc(Nc2ncn(-c3ccccc3)n2)c1` [Compound I-46], the Ki [3] is reported as under 50 nM, the Ki [1] is reported as over 1000 nM and the Ki [2] is reported as over 1000 nM.

`CC(=O)N1[C@H](C)CN(c2cc(-n3cnc(Nc4ccc(NC(=O)N(C)C)cc4)n3)ccn2)C[C@@H]1C` [Compound I-77, 3-(4-{1-[2-(4-Acetyl-3,5-dimethyl-piperazin-1-yl)-pyridin-4-yl]-1H-[1,2,4]triazol-3-ylamino}-phenyl)-1,1-dimethyl-urea] showed a Ki [3] of 50 to 500 nM, a Ki [1] of over 1000 nM and a Ki [2] of under 100 nM.

In the case of `CCCOC(=O)Nc1ccc(Nc2ncn(-c3ccnc(N4C[C@@H](C)N(C(C)=O)[C@@H](C)C4)c3)n2)cc1` [Compound I-88], the Ki [3] is reported as 50 to 500 nM, the Ki [1] is reported as over 1000 nM and the Ki [2] is reported as under 100 nM.

Work on `OC[C@H]1CCCN(c2cc(-n3cnc(Nc4ccccc4)n3)ccn2)C1` [Compound I-65] yielded a Ki [1] of 500 to 1000 nM and a Ki [2] of 100 to 1000 nM.

With `COc1cc(Nc2ncn(-c3ccccc3)n2)cc(OC)c1OC` [Compound I-42] the Ki [1] was over 1000 nM and the Ki [2] was 100 to 1000 nM.

`COC(=O)Nc1ccc(Nc2ncn(-c3ccnc(N4C[C@@H](C)N(C(C)=O)[C@@H](C)C4)c3)n2)cc1` [Compound I-78] was tested, and the Ki [3] was 50 to 500 nM, the Ki [1] was over 1000 nM and the Ki [2] was under 100 nM.

For `CC(=O)N1[C@H](C)CN(c2cc(-n3cnc(Nc4ccc(NC(=O)C(F)(F)F)cc4)n3)ccn2)C[C@@H]1C` [Compound I-79], the Ki [3] was 50 to 500 nM, the Ki [1] was over 1000 nM and the Ki [2] was under 100 nM.

`CC(=O)N1CCCN(c2cc(-n3cnc(Nc4ccccc4)n3)ccn2)CC1` [Compound I-66] was tested, and the Ki [3] was 50 to 500 nM, the Ki [1] was over 1000 nM and the Ki [2] was 100 to 1000 nM.

`CCC(=O)N1CCCN(c2cc(-n3cnc(Nc4ccccc4)n3)ccn2)CC1` [Compound I-67] was tested, and the Ki [1] was over 1000 nM and the Ki [2] was 100 to 1000 nM.
